Measured values taken from patent US20230364070A1, “PYRROLO[3,2-C]PYRIDIN-4-ONE DERIVATIVES USEFUL IN THE TREATMENT OF CANCER” (Scorpion Therapeutics, Inc., priority 2020, published 2023).

What was measured:
Format in all cases: cell-based
pEGFR in CUTO14 cells = biological target: T1, pEGFR in CUTO14 cells (Homo sapiens, UniProt P00533, DUP767-769); assay: Inhibitor activity on EGFR phosphorylation (pEGFR AlphaLISA, 2 h), CUTO14 cells
T1 construct: endogenous in cells; host or cells: CUTO14 cells
T1 sequence (P00533 with tags, fused parts or gaps DUP767-769): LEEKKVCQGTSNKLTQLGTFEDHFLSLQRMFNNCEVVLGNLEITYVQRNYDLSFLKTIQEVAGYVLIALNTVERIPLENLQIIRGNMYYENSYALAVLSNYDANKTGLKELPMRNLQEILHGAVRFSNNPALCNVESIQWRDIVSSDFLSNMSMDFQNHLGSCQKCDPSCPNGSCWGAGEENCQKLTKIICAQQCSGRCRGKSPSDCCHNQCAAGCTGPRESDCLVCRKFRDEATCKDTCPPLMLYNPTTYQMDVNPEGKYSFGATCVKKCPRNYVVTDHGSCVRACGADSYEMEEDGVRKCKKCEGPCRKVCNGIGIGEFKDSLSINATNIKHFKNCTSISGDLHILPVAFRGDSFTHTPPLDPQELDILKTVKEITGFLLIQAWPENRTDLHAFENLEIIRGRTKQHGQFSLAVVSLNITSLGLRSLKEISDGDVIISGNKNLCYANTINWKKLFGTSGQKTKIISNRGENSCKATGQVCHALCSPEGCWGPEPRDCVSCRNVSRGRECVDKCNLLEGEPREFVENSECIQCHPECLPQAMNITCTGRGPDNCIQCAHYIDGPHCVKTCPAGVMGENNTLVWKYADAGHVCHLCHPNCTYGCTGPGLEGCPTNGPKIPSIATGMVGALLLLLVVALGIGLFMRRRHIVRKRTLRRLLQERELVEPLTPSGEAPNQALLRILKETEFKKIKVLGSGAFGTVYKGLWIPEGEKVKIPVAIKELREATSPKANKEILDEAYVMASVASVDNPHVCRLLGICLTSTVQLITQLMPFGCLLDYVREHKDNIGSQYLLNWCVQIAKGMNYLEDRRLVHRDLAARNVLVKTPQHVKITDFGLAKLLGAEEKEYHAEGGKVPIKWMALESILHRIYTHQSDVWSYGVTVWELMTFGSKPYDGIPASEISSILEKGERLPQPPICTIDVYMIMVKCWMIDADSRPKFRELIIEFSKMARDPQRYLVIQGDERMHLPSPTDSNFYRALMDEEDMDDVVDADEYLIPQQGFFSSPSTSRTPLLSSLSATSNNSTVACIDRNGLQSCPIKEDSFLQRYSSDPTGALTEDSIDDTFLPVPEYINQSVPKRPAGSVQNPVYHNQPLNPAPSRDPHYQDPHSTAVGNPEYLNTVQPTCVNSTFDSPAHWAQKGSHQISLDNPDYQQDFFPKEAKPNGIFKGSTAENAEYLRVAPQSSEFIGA
Method: CUTO14 cells were obtained from Dr. Robert C. Doebele at the University of Colorado.
Shake 350 rpm for 1 hr in the dark • 3.4 Prepare donor mix under low light conditions prior to use. Dispense 5 μL of donor mix to all the wells. Mix well on the shaker, seal and wrap in aluminum foil and incubate 1.5 hrs at room temperature in the dark • 3.5 Transfer 18.5 μL mixture to OptiPlate 384, and read using an Envision.

Ba/F3 cells with EGFR WT = biological target: T2, Ba/F3 cells with EGFR WT (Homo sapiens, UniProt P00533); assay: EGFR activity: Ba/F3 cell viability (CellTiter-Glo, 72 h), EGFR WT; conditions: read-out: BaF3 WT IC50
T2 construct: expressed in transfected cells; host or cells: Ba/F3 (murine pro-B cells), retroviral transduction, puromycin selection, maintained with EGF
T2 sequence (P00533 25-1210): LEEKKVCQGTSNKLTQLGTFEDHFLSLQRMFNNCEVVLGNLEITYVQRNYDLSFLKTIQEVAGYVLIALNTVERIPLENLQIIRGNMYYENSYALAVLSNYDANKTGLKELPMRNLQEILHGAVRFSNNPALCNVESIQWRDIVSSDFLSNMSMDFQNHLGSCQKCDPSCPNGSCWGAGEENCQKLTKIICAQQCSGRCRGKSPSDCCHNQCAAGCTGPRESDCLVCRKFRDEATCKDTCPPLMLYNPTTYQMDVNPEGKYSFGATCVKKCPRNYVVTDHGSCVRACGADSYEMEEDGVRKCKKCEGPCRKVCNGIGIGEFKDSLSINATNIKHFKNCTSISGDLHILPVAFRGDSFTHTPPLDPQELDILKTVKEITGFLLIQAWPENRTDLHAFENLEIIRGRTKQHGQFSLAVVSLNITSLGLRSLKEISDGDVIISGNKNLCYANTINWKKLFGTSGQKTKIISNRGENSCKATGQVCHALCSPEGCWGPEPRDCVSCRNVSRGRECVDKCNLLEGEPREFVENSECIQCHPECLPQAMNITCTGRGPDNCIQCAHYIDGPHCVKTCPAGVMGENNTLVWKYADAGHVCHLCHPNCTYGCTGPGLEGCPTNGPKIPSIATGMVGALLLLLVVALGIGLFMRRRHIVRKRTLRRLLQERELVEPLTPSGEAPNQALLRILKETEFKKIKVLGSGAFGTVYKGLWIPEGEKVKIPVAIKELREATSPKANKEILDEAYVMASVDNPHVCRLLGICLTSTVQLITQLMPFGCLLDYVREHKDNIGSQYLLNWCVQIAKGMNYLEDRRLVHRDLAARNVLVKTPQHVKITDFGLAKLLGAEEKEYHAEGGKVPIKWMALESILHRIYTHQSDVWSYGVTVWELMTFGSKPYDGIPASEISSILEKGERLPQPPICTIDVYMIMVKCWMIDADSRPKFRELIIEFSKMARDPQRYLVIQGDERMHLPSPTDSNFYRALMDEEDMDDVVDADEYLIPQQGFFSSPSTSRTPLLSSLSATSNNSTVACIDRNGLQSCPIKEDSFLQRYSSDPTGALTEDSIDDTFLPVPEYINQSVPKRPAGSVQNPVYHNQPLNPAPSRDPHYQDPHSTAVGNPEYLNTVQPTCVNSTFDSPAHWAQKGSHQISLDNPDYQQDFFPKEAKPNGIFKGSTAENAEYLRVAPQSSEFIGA

[1] = biological target: T3, Ba/F3 cells with EGFR exon 20 NPG Ins D770_N771 (Homo sapiens, UniProt P00533, INS770NPG); assay: EGFR activity: Ba/F3 cell viability (CellTiter-Glo, 72 h), EGFR exon 20 NPG insertion; conditions: EGFR exon 20 NPG Ins D770_N771, cell viability, read-out: BaF3 NPG IC50
T3 construct: expressed in transfected cells; host or cells: Ba/F3 (murine pro-B cells), retroviral transduction, puromycin selection, IL3-independent pool
T3 sequence (P00533 with tags, fused parts or gaps INS770NPG): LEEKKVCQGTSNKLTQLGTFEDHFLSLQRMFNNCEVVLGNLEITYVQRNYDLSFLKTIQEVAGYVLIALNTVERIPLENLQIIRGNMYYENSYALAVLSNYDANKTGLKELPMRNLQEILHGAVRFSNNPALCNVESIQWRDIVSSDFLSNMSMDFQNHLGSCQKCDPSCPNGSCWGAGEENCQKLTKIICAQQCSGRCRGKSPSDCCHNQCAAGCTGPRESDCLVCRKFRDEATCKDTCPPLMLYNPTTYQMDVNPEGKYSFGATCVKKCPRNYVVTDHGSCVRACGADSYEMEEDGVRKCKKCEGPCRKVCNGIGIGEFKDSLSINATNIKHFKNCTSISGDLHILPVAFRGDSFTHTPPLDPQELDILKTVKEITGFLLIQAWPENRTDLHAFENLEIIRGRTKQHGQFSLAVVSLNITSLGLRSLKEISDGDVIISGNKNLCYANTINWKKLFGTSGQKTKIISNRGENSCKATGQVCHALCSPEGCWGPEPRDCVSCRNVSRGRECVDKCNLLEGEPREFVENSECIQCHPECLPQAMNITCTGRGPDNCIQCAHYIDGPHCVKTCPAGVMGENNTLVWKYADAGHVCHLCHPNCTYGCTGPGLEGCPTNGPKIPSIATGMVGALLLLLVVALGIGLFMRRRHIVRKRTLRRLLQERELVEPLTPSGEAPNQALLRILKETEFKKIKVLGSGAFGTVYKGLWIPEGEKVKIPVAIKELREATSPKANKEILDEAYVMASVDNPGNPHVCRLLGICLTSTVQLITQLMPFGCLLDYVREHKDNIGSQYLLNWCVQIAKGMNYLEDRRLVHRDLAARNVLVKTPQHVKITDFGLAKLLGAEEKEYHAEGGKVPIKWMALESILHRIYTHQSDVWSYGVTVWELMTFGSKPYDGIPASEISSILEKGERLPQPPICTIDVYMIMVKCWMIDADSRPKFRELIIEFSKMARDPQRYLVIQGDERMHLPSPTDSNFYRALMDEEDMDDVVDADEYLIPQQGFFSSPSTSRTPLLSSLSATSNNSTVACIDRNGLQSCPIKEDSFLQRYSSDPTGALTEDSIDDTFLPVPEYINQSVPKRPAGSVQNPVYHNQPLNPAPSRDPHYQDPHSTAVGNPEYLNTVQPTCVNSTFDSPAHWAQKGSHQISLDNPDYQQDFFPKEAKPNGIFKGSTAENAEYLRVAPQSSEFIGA

[2] = biological target: T4, Ba/F3 cells with EGFR exon 20 ASV Ins V769_D770 (Homo sapiens, UniProt P00533, INS769ASV); assay: EGFR activity: Ba/F3 cell viability (CellTiter-Glo, 72 h), EGFR exon 20 ASV insertion; conditions: EGFR exon 20 ASV Ins V769_D770, cell viability, read-out: BaF3 ASV IC50
T4 construct: expressed in transfected cells; host or cells: Ba/F3 (murine pro-B cells), retroviral transduction, puromycin selection, IL3-independent pool
T4 sequence (P00533 with tags, fused parts or gaps INS769ASV): as the sequence (P00533 with tags, fused parts or gaps DUP767-769) above

IC50 (pEGFR in CUTO14 cells)	SMILES	also measured
< 100 nM	C=CC(=O)N1[C@@H](COc2cnccc2-c2[nH]c3c(c2Nc2cccc(F)c2OC)C(=O)NCC3)C[C@H]1C (relative stereo) [compound 332]	–
< 100 nM	C=CC(=O)N1CC(C)(C)C1C#Cc1cnccc1-c1[nH]c2c(c1Nc1cccc(Cl)c1OC)C(=O)NCC2 (single isomer, unassigned) [compound 233]	–
< 100 nM	C=CC(=O)N1CC(C)(C)C1C#Cc1cnccc1-c1[nH]c2c(c1Nc1cccc(F)c1OC)C(=O)NCC2 (single isomer, unassigned) [compound 249]	–
< 100 nM	C=CC(=O)NC1(C#Cc2cnccc2-c2[nH]c3c(c2Nc2cccc(Cl)c2OC)C(=O)NCC3)CCOC1 (single isomer, unassigned) [compound 322]	–
< 100 nM	C=CC(=O)N1CCC1(C)COc1cnccc1-c1[nH]c2c(c1Nc1cccc(F)c1CC)C(=O)NCC2 (single isomer, unassigned) [compound 359]	–
< 100 nM	C=CC(=O)N1CCC1(C)COc1cnccc1-c1[nH]c2c(c1Nc1cccc(Cl)c1OC)C(=O)NCC2 (single isomer, unassigned) [compound 511]	–
< 100 nM	C=CC(=O)N1CC(C)(C)C1COc1cnccc1-c1[nH]c2c(c1Nc1cccc(Cl)c1OC)C(=O)NCC2 (single isomer, unassigned) [compound 513]	–
< 100 nM	C=CC(=O)NC1(C#Cc2cnccc2-c2[nH]c3c(c2Nc2cccc(F)c2OC)C(=O)NCC3)CC1 [compound 206, N-{1-[2-(4-{3-[(3-fluoro-2-methoxyphenyl)amino]-4-oxo-1H,5H,6H,7H-pyrrolo[3,2-c]pyridin-2-yl}pyridin-3-yl)ethynyl]cyclopropyl}prop-2-enamide]	–
< 100 nM	Cc1c(F)cccc1Nc1c(-c2ccncc2OC[C@@H]2CCCN2C(=O)/C=C/CN(C)C)[nH]c2c1C(=O)NCC2 [compound 217, 2-(3-{[(2S)-1-[(2E)-4-(dimethylamino)but-2-enoyl]pyrrolidin-2-yl]methoxy}pyridin-4-yl)-3-[(3-fluoro-2-methylphenyl)amino]-1H,5H,6H,7H-pyrrolo[3,2-c] pyridin-4-one]	–
< 100 nM	C=CC(=O)N1CC(C)(C)[C@H]1C#Cc1cnccc1-c1[nH]c2c(c1Nc1cccc(Cl)c1OC)C(=O)NCC2 [compound 232, 3-[(3-chloro-2-methoxyphenyl)amino]-2-(3-{2-[(2R)-3,3-dimethyl-1-(prop-2-enoyl)azetidin-2-yl]ethynyl}pyridin-4-yl)-1H,5H,6H,7H-pyrrolo[3,2-c]pyridin-4-one]	–
< 100 nM	C=CC(=O)N1CC(C)(C)C[C@@H]1C#Cc1cnccc1-c1[nH]c2c(c1Nc1cccc(F)c1OC)C(=O)NCC2 [compound 253, 2-(3-{2-[(2R)-4,4-dimethyl-1-(prop-2-enoyl)pyrrolidin-2-yl]ethynyl}pyridin-4-yl)-3-[(3-fluoro-2-methoxyphenyl)amino]-1H,5H,6H,7H-pyrrolo[3,2-c]pyridin-4-one]	–
< 100 nM	C=CC(=O)N(C)C(C)(C)C#Cc1cnccc1-c1[nH]c2c(c1Nc1cccc(F)c1OC)C(=O)NCC2 [compound 259, N-[4-(4-{3-[(3-fluoro-2-methoxyphenyl)amino]-4-oxo-1H,5H,6H,7H-pyrrolo[3,2-c]pyridin-2-yl}pyridin-3-yl)-2-methylbut-3-yn-2-yl]-N-methylprop-2-enamide]	–
< 100 nM	C=CC(=O)NC1(C#Cc2cnccc2-c2[nH]c3c(c2Nc2cccc(F)c2OC)C(=O)NCC3)COC1 [compound 263]	–
< 100 nM	C=CC(=O)N1[C@H]2CC[C@H](C2)[C@@H]1COc1cnccc1-c1[nH]c2c(c1Nc1cccc(Cl)c1OC)C(=O)NCC2 [compound 274, 3-[(3-chloro-2-methoxyphenyl)amino]-2-(3-{[(1S,3R,4R)-2-(prop-2-enoyl)-2-azabicyclo[2.2.1]heptan-3-yl]methoxy}pyridin-4-yl)-1H,5H,6H,7H-pyrrolo[3,2-c]pyridin-4-one]	–
< 100 nM	CC#CC(=O)N1CC[C@H]1COc1cnccc1-c1[nH]c2c(c1Nc1cccc(Cl)c1OC)C(=O)NCC2 [compound 288, 2-(3-{[(2S)-1-(but-2-ynoyl)azetidin-2-yl]methoxy}pyridin-4-yl)-3-[(3-chloro-2-methoxyphenyl)amino]-1H,5H,6H,7H-pyrrolo[3,2-c]pyridin-4-one]	–
< 100 nM	CC#CC(=O)N1CC[C@@H]1COc1cnccc1-c1[nH]c2c(c1Nc1cccc(F)c1OC)C(=O)NCC2 [compound 289, 2-(3-{[(2R)-1-(but-2-ynoyl)azetidin-2-yl]methoxy}pyridin-4-yl)-3-[(3-fluoro-2-methoxyphenyl)amino]-1H,5H,6H,7H-pyrrolo[3,2-c]pyridin-4-one]	–
< 100 nM	CC#CC(=O)N1CCC[C@]1(C)C#Cc1cnccc1-c1[nH]c2c(c1Nc1cccc(F)c1OC)C(=O)NCC2 [compound 291, 2-(3-{2-[(2R)-1-(but-2-ynoyl)-2-methylpyrrolidin-2-yl]ethynyl}pyridin-4-yl)-3-[(3-fluoro-2-methoxyphenyl)amino]-1H,5H,6H,7H-pyrrolo[3,2-c]pyridin-4-one]	–
< 100 nM	C=C(F)C(=O)N1CC[C@H]1COc1cnccc1-c1[nH]c2c(c1Nc1cccc(F)c1OC)C(=O)NCC2 [compound 296, 3-[(3-fluoro-2-methoxyphenyl)amino]-2-(3-{[(2S)-1-(2-fluoroprop-2-enoyl)azetidin-2-yl]methoxy}pyridin-4-yl)-1H,5H,6H,7H-pyrrolo[3,2-c]pyridin-4-one]	–
< 100 nM	CC#CC(=O)NC(C)(C)C#Cc1cnccc1-c1[nH]c2c(c1Nc1cccc(F)c1OC)C(=O)NCC2 [compound 302, N-[4-(4-{3-[(3-fluoro-2-methoxyphenyl)amino]-4-oxo-1H,5H,6H,7H-pyrrolo[3,2-c]pyridin-2-yl}pyridin-3-yl)-2-methylbut-3-yn-2-yl]but-2-ynamide]	–
< 100 nM	C=CC(=O)N1CC2CC1(C#Cc1cnccc1-c1[nH]c3c(c1Nc1cccc(F)c1OC)C(=O)NCC3)C2 [compound 318, 3-[(3-fluoro-2-methoxyphenyl)amino]-2-(3-{2-[2-(prop-2-enoyl)-2-azabicyclo[2.1.1]hexan-1-yl]ethynyl}pyridin-4-yl)-1H,5H,6H,7H-pyrrolo[3,2-c]pyridin-4-one]	–
< 100 nM	C=CC(=O)N1C(C)CC1COc1cnccc1-c1[nH]c2c(c1Nc1cccc(F)c1OC)C(=O)NCC2 (stereo not shown) [compound 333]	–
< 100 nM	COc1c(F)cccc1Nc1c(-c2ccncc2C#C[C@@]2(C)CCCN2C(=O)/C=C/CN(C)C)[nH]c2c1C(=O)NCC2 [compound 335, 2-(3-{2-[(2R)-1-[(2E)-4-(dimethylamino)but-2-enoyl]-2-methylpyrrolidin-2-yl]ethynyl}pyridin-4-yl)-3-[(3-fluoro-2-methoxyphenyl)amino]-1H,5H,6H,7H-pyrrolo[3,2-c]pyridin-4-one]	–
–	COc1c(F)cccc1Nc1c(-c2ccncc2C#C[C@]2(C)COCCN2C(=O)/C=C/CN(C)C)[nH]c2c1C(=O)NCC2 [compound 631]	IC50 (Ba/F3 cells with EGFR WT): 100 to 1000 nM; IC50 [1]: < 100 nM; IC50 [2]: < 100 nM
–	C=CC(=O)N1CCOC[C@@]1(C)C#Cc1cnccc1-c1[nH]c2c(c1Nc1cccc(F)c1OC)C(=O)NCC2 [compound 632]	IC50 (Ba/F3 cells with EGFR WT): 100 to 1000 nM; IC50 [1]: < 100 nM; IC50 [2]: < 100 nM
–	C=CC(=O)N1CCOC[C@@]1(C)C#Cc1cnccc1-c1[nH]c2c(c1Nc1cccc(Cl)c1OC)C(=O)NCC2 [compound 634]	IC50 (Ba/F3 cells with EGFR WT): 100 to 1000 nM; IC50 [1]: < 100 nM; IC50 [2]: < 100 nM
